Data published in PMC12628652, “A Validated UPLC‐MS/MS Method for Monitoring Temozolomide and Perillyl Alcohol Metabolites in Biological Matrices: Insights From a Preclinical Pharmacokinetic Study” (Biomedical Chromatography, 2025).

Columns and labels:
[1] = Stability of analytes in rat plasma and tissue matrices (freeze-thaw, bench-top, autosampler); type: physicochemical; settings: for Stability (ER %) Autosampler: 10°C for 24 h; for Stability (ER %) Bench-top: room temperature for 6 h; for Stability (ER %) Freeze/thaw: three freeze–thaw cycles over 24-h intervals
Procedure: QC samples were prepared by spiking blank rat plasma with PA, AIC, and TMZ at three concentration levels: 30, 80, and 200 ng/mL. Internal standards (IS1 and IS2) were added to each sample at a final concentration of 100 ng/mL. Whole blood was obtained from untreated anesthetized rats that were euthanized as part of the study protocol. Blood samples were collected into heparinized tubes and centrifuged at 3500 rpm for 10 min at 20°C to separate plasma. Organs including the brain, lungs, kidneys, spleen, and liver were promptly excised and homogenized using a Marconi mechanical tissue homogenizer (5 mm probe) in phosphate‐buffered saline (PBS, pH 7.4) at a 1:5 (w/v) tissue‐to‐buffer ratio.
For each matrix sample, 50 μL of homogenate or plasma was mixed with 50 μL of internal standard (IS) solution (100 ng/mL), followed by the addition of the respective working solution to reach the target analyte concentration. The volume was adjusted to 1 mL using an appropriate solvent mixture. Samples were centrifuged again at 3500 rpm for 10 min at 4°C. The resulting supernatants were filtered through 0.22 μm membrane filters prior to chromatographic analysis. All calibration standards and QC samples were prepared freshly on the day of analysis to minimize analyte degradation.
The stability of PA, AIC, and TMZ in rat plasma was assessed under the following conditions using low, medium, and high QC levels: (1) Freeze–thaw stability: Three freeze–thaw cycles over 24‐h intervals; (2) Bench‐top stability: Storage at room temperature for 6 h; (3) Autosampler stability: Storage at 10°C for 24 h. Analytes were considered stable if the relative error (RE%) remained within ±15% (Tiwari and Tiwari [2010]).

[2] = Biodistribution study in rats 4 h after single oral administration of POH and TMZ; type: in vivo, Male Wistar rats; settings: n = 4
Procedure: Following blood collection, animals were anesthetized and euthanized, and their organs (kidneys, liver, spleen, brain, and lungs) were promptly excised and stored at −20°C. Tissue samples were homogenized in PBS (pH 7.4) at a ratio of 1 part tissue to 5 parts buffer (w/v), using a mechanical homogenizer equipped with a 5 mm probe.
For chromatographic analysis, 200 μL of each tissue homogenate was mixed with 50 μL of IS solution (final IS concentration: 100 ng/mL) and 750 μL of ACN to reach a final volume of 1 mL. The mixture was centrifuged at 3500 rpm for 10 min at 20°C. The supernatant was collected, filtered through a 0.22 μm membrane, and transferred to injection vials for UPLC‐MS/MS analysis. When necessary, samples were diluted appropriately to ensure analyte concentrations fell within the validated linear range.
The pharmacokinetic and biodistribution study was conducted in accordance with ethical guidelines and approved by the Animal Ethics Committee of the Universidade Estadual do Centro‐Oeste, Brazil (Protocol No. 026/2023). Male Wistar rats (n = 6 for pharmacokinetics; n = 4 for biodistribution), weighing approximately 200 g, were housed under controlled environmental conditions (12 h light/dark cycle, 35% relative humidity, and temperature of 23°C ± 2°C). Animals had free access to food and water, which were withheld 10 h prior to drug administration and resumed 2 h afterward.
Each animal received a single oral dose of POH (47 mg/kg) and TMZ (2 mg/kg). For pharmacokinetic profiling, blood samples were collected via the tail vein into heparinized tubes at predefined time points: 0.5, 1, 2, 4, 8, 12, and 24 h post‐administration. For biodistribution analysis, a separate cohort of rats (n = 4) was sacrificed 4 h after dosing. Organs, including the brain, liver, lungs, kidneys, and spleen, were collected, homogenized, and stored at −20°C for subsequent quantification, as detailed in Section 3.2.

[3] = rat brain homogenate, 200 ng/mL
[4] = rat kidney homogenate, 30 ng/mL
[5] = rat kidney homogenate, 80 ng/mL
[6] = rat kidney homogenate, 200 ng/mL
[7] = rat liver homogenate, 200 ng/mL
[8] = rat spleen homogenate, 30 ng/mL
[9] = rat spleen homogenate, 80 ng/mL
[10] = rat spleen homogenate, 200 ng/mL

## Cn1nnc2c(C(N)=O)ncn2c1=O [TMZ, Temozolomide]
[1]; rat brain homogenate, 30 ng/mL
  Stability (ER %) Autosampler: 1.65%
  Stability (ER %) Bench-top: 1.48%
  Stability (ER %) Freeze/thaw: 9.76%
[1]; rat brain homogenate, 80 ng/mL
  Stability (ER %) Autosampler: 1.89%
  Stability (ER %) Bench-top: 7.73%
  Stability (ER %) Freeze/thaw: 0.84%
[1]; [3]
  Stability (ER %) Autosampler: 4.29%
  Stability (ER %) Bench-top: 2.32%
  Stability (ER %) Freeze/thaw: 4.42%
[1]; [4]
  Stability (ER %) Autosampler: 1.41%
  Stability (ER %) Bench-top: 1.99%
  Stability (ER %) Freeze/thaw: 3.69%
[1]; [5]
  Stability (ER %) Autosampler: 3.14%
  Stability (ER %) Bench-top: 8.22%
  Stability (ER %) Freeze/thaw: 9.44%
[1]; [6]
  Stability (ER %) Autosampler: 4.92%
  Stability (ER %) Bench-top: 3.77%
  Stability (ER %) Freeze/thaw: 4.52%
[1]; rat liver homogenate, 30 ng/mL
  Stability (ER %) Autosampler: 3.82%
  Stability (ER %) Bench-top: 1.49%
  Stability (ER %) Freeze/thaw: 5.67%
[1]; rat liver homogenate, 80 ng/mL
  Stability (ER %) Autosampler: 4.07%
  Stability (ER %) Bench-top: 6.41%
  Stability (ER %) Freeze/thaw: 8.17%
[1]; [7]
  Stability (ER %) Autosampler: 3.33%
  Stability (ER %) Bench-top: 1.57%
  Stability (ER %) Freeze/thaw: 1.54%
[1]; rat lung homogenate, 30 ng/mL
  Stability (ER %) Autosampler: 4.82%
  Stability (ER %) Bench-top: 7.99%
  Stability (ER %) Freeze/thaw: 6.24%
[1]; rat lung homogenate, 80 ng/mL
  Stability (ER %) Autosampler: 3.02%
  Stability (ER %) Bench-top: 9.32%
  Stability (ER %) Freeze/thaw: 7.19%
[1]; rat lung homogenate, 200 ng/mL
  Stability (ER %) Autosampler: 2.51%
  Stability (ER %) Bench-top: 5.54%
  Stability (ER %) Freeze/thaw: 1.34%
[1]; rat plasma, 30 ng/mL
  Stability (ER %) Autosampler: 12.84%
  Stability (ER %) Bench-top: 1.39%
  Stability (ER %) Freeze/thaw: 3.94%
[1]; rat plasma, 80 ng/mL
  Stability (ER %) Autosampler: 5.39%
  Stability (ER %) Bench-top: 3.94%
  Stability (ER %) Freeze/thaw: 4.29%
[1]; rat plasma, 200 ng/mL
  Stability (ER %) Autosampler: 13.24%
  Stability (ER %) Bench-top: 1.94%
  Stability (ER %) Freeze/thaw: 9.83%
[1]; [8]
  Stability (ER %) Autosampler: 2.64%
  Stability (ER %) Bench-top: 6.41%
  Stability (ER %) Freeze/thaw: 5.86%
[1]; [9]
  Stability (ER %) Autosampler: 2.61%
  Stability (ER %) Bench-top: 1.35%
  Stability (ER %) Freeze/thaw: 1.35%
[1]; [10]
  Stability (ER %) Autosampler: 2.22%
  Stability (ER %) Bench-top: 1.05%
  Stability (ER %) Freeze/thaw: 3.86%
[2]; male, Wistar, rat brain, 4 h after single oral dose TMZ 2 mg/kg and POH 47 mg/kg
  concentration at 4 h: ~1000 ng/mL
[2]; rat brain, 4 h after single oral dose POH 47 mg/kg and TMZ 2 mg/kg
  brain concentration / CNS penetration, in words: highest concentration in the brain
[2]; rats, 4 h after single oral dose POH 47 mg/kg and TMZ 2 mg/kg
  tissue concentrations (brain, liver, spleen, kidney, lung), in words: highest tissue concentrations in all organs
